Test results taken from paper PMC8243547 (BMC Complementary Medicine and Therapies, 2021).
Converted amounts (≈) assume the structure as drawn. “And” between values parts separate entries of the source, which are not always exact repeats. Equal entries are not always repeated. Where two headings read alike, the source gives them in different places. One block for each molecule: values may come before it.

Key:
[1] = tested on: chloroquine-sensitive 3D7 strain of P. falciparum; experiment: SYBR green I fluorescence-based antiplasmodial assay, Pf3D7; format: cell-based; conditions: Plasmodium falciparum
Procedure: (§1) The cytotoxicity assay was performed using the African green monkey normal kidney Vero cells (ATCC CRL 1586) and murine macrophages Raw 264.7 cells (ATCC #TIB-71) obtained from the American Type Culture Collection (ATCC).
(§2) The culture medium was renewed daily to propagate the culture. Thin blood smears were made and stained with 10% Giemsa solution for 10 min and microscopically examined under oil immersion to monitor cell cycle transition and parasitaemia.
(§3) Before each experiment, synchronized ring stage parasites were obtained by 5% sorbitol (w/v) treatment as previously described.
(§4) The parasite susceptibility was determined in 96-well microtitration plates using the SYBR green I fluorescence-based method with some modifications. Briefly, sorbitol-synchronized ring stage parasites (hematocrit: 1.5%, parasitemia: 1%) were incubated in the presence of two-fold diluted extracts (0.78-100 μg/mL, DMSO 0.5%), fractions (0.39-50 μg/mL, DMSO 0.5%) or compounds (0.15-20 μg/mL, DMSO 0.5%). […] Drug-free culture wells in 0.5% DMSO were considered as positive growth controls. After 72 h of incubation, 50 μL of SYBR Green I lysis solution [Tris (20 mM; pH 7.5) (Sigma–Aldrich), EDTA (5 mM) (Sigma–Aldrich), saponin (0.008%, w/v) (Sigma–Aldrich), Triton X-100 (0.08%, v/v) (Sigma–Aldrich) and SYBR Green (2x) (Life technologies)] were added to each well and the plate was incubated in the dark at 37 °C for 30 min. SYBR green I fluorescence was measured using a Fluoroskan Ascent multi-well plate reader (Thermo scientific) with excitation and emission wavelength bands set at 485 and 538 nm, respectively. […] The resistance indices (RI), defined as the ratio of the EC50 of drug-resistant strain to the EC50 of sensitive strain were calculated.
(§5) Microsoft Excel Software was used to calculate the percentage of inhibition. The EC50 and CC50 values for the in vitro antiplasmodial activity were determined by non-linear regression analysis using GraphPad Prism 5.0 Software.

[2] = tested on: multi-resistant Dd2 strain of P. falciparum; experiment: SYBR green I fluorescence-based antiplasmodial assay, PfDd2; format: cell-based; conditions: Plasmodium falciparum
Procedure: as §1, §2, §3, §4, §5

[3] = tested on: human liver cell line Huh7; conditions: cited from earlier work
[4] = tested on: chloroquine resistant strain Pf7G8; parameters: method as in PMID 18710482; conditions: read-out: EC50 against chloroquine resistant strain Pf7G8; cited from earlier work
red blood cells = conditions: cited from earlier work
[5] = Resazurin-based cytotoxicity assay, Raw 264.7 cells; conditions: mouse
Procedure: as §1
The cytotoxicity of active natural products was assessed according to the protocol described by. The African green monkey normal kidney Vero cells (ATCC CRL 1586) and murine macrophages Raw 264.7 cells (ATCC #TIB-71) were maintained in T-25 flasks (Corning Incorporated, USA) using complete Dulbecco’s Modified Eagle’s Medium (Sigma-Aldrich, Germany), supplemented with, 10% Fetal Bovine Serum (Sigma-Aldrich, Germany), 0.2% sodium bicarbonate (w/v) (Sigma-Aldrich, Germany) and 1% (v/v) Penicillin-Streptomycin (Sigma-Aldrich, Germany). The cells were kept at 37 °C for 72 h in 5% CO2 incubator, and the medium was renewed each 72 h and the cell density monitored under the inverted fluorescent microscope Etaluma 520 (Etaluma, USA) until the formation of a monolayer. Confluent culture (nearly 90%) was trypsinized (0.05% Trypsin-EDTA, Sigma-Aldrich, Germany), then centrifuged at 1800 rpm for 5 min and the resulting pellet was re-suspended in culture medium. Cells at 10^4cells per well were seeded (100 μL) in 96-well culture plates (Costar, USA) and incubated overnight to allow cell adhesion. Thereafter, 10 μL of serially diluted extracts, fractions (≤200 μg/mL), and compounds (≤50 μg/mL) were added to plate wells in duplicate. The plates were incubated in a humidified and 5% CO2 atmosphere at 37 °C for 48 h. […] Fluorescence was then read using a Magelan Infinite M200 fluorescence multi-well plate reader (Tecan) with excitation and emission wavelengths at 530 and 590 nm, respectively. […] Selectivity indices (SI = CC50/EC50, defining the balance between cytotoxicity and antiplasmodial activity) were calculated for each test substance.
as §5

[6] = tested on: chloroquine sensitive poW strain of P. falciparum; parameters: method as in PMID 12064726; conditions: read-out: EC50 against chloroquine sensitive poW strain; cited from earlier work
[7] = tested on: African green monkey normal kidney Vero cells; experiment: Resazurin-based cytotoxicity assay, Vero cells; conditions: over Vero and Raw 264.7 cells and Pf3D7 and PfDd2 strains
Procedure: as §1
(§6) The cytotoxicity of active natural products was assessed according to the protocol described by. The African green monkey normal kidney Vero cells (ATCC CRL 1586) and murine macrophages Raw 264.7 cells (ATCC #TIB-71) were maintained in T-25 flasks (Corning Incorporated, USA) using complete Dulbecco’s Modified Eagle’s Medium (Sigma-Aldrich, Germany), supplemented with, 10% Fetal Bovine Serum (Sigma-Aldrich, Germany), 0.2% sodium bicarbonate (w/v) (Sigma-Aldrich, Germany) and 1% (v/v) Penicillin-Streptomycin (Sigma-Aldrich, Germany). The cells were kept at 37 °C for 72 h in 5% CO2 incubator, and the medium was renewed each 72 h and the cell density monitored under the inverted fluorescent microscope Etaluma 520 (Etaluma, USA) until the formation of a monolayer. Confluent culture (nearly 90%) was trypsinized (0.05% Trypsin-EDTA, Sigma-Aldrich, Germany), then centrifuged at 1800 rpm for 5 min and the resulting pellet was re-suspended in culture medium. Cells at 10^4cells per well were seeded (100 μL) in 96-well culture plates (Costar, USA) and incubated overnight to allow cell adhesion. Thereafter, 10 μL of serially diluted extracts, fractions (≤200 μg/mL), and compounds (≤50 μg/mL) were added to plate wells in duplicate. The plates were incubated in a humidified and 5% CO2 atmosphere at 37 °C for 48 h. Podophyllotoxin at 20 μM was added as positive control and wells containing untreated cells were included as 100% growth control. Ten microliters of resazurin stock solution (0.15 mg/mL in sterile PBS), were added to each well, and incubated for an additional 4 h. Fluorescence was then read using a Magelan Infinite M200 fluorescence multi-well plate reader (Tecan) with excitation and emission wavelengths at 530 and 590 nm, respectively. The percentage of cell viability was calculated with regard to the negative control, and subsequently used to determine the concentration that reduced 50% of cell viability (CC50) by non-linear regression using the GraphPad Prism software version 5.0 (San Diego, California) as described above. Selectivity indices (SI = CC50/EC50, defining the balance between cytotoxicity and antiplasmodial activity) were calculated for each test substance.
as §5

in vitro = conditions: African green monkey
Procedure: as §1, §6, §5

[8] = tested on: resistant strain W2 of P. falciparum; parameters: method as in PMID 21503279; conditions: cited from earlier work
[9] = tested on: chloroquine sensitive strain Pf3D7; parameters: method as in PMID 18710482; conditions: read-out: EC50 against chloroquine sensitive strain Pf3D7; cited from earlier work
FabI = tested on: FabI; parameters: method as in PMID 16722653; conditions: enzyme of fatty acid biosynthesis of P. falciparum; read-out: EC50 of FabI inhibition; cited from earlier work
normal human cells TIG-1 = conditions: read-out: 50% lethal concentration (LC50), TIG-1; cited from earlier work
normal human cells HUVE = conditions: read-out: 50% lethal concentration (LC50), HUVE; cited from earlier work
[10] = tested on: multi-resistant Dd2 strain of P. falciparum; parameters: method as in PMID 12064726; conditions: read-out: EC50 against multi-resistant Dd2 strain; cited from earlier work
[11] = tested on: chloroquine-sensitive strain D10 of P. falciparum; parameters: method as in PMID 21503279; conditions: cited from earlier work
P. berghei = conditions: murine malaria model, cited from earlier work
Pf3D7 = tested on: Pf3D7; parameters: method as in PMID 19015351; conditions: read-out: antiplasmodial potency Pf3D7; cited from earlier work
PfDd2 = tested on: PfDd2; parameters: method as in PMID 19015351; conditions: read-out: antiplasmodial potency PfDd2; cited from earlier work
[12] = 3D7, isolated compounds and reference drugs (Table 3), 72 h incubation, read-out: EC50 (μM) Pf3D7
[13] = DD2, isolated compounds and reference drugs (Table 3), 72 h incubation, read-out: EC50 (μM) PfDd2
[14] = DD2, 72 h, read-out: EC50 (μM) PfDd2

- EC50 ([1]; 3D7, Table 1 reference drugs, 72 h incubation, read-out: EC50 Pf3D7, reference drugs): 0.014 ± 0.001 µM
- EC50 [1, 12]: 0.014 ± 0.001 µM
- EC50 ([2]; DD2, Table 1 reference drugs, 72 h incubation, read-out: EC50 PfDd2, reference drugs): 0.018 ± 0.003 µM
- EC50 [2, 13]: 0.018 ± 0.003 µM
SMILES: C[C@@H]1CC[C@H]2[C@@H](C)C(=O)O[C@@H]3O[C@@]4(C)CC[C@@H]1[C@]32OO4 [Artemisinin, reference compound]

SMILES: CCN(CC)CCCC(C)Nc1ccnc2cc(Cl)ccc12 (stereo not drawn) [Chloroquine, reference compound]
- EC50 ([1]; 3D7, 72 h, read-out: EC50 (μM) Pf3D7): 0.018 ± 0.002 µM
- EC50 ([1]; 3D7, 72 h, read-out: EC50 Pf3D7, reference drugs (μM)): 0.018 ± 0.002 µM
- EC50 [2, 14]: 0.449 ± 0.065 µM
- EC50 ([2]; DD2, 72 h, read-out: EC50 PfDd2, reference drugs (μM)): 0.449 ± 0.065 µM

SMILES: O=c1cc(-c2ccc(O)cc2)oc2cc(O)cc(O)c12 [Compound 1, apigenin]
- cytotoxicity on Huh7, in words [3]: no signs of cytotoxicity
- EC50 [4]: 13 ± 2 µM
- membrane disruption on red blood cells, in words (red blood cells): no signs
- CC50 at 48 h [5]: > 185 µM
- EC50 [1, 12]: 19 ± 0.72 µM
- EC50 [6]: 19 µM
- EC50 [2, 13]: 16.4 ± 0.52 µM
- SI (selectivity index) [7]: greater than 9
- CC50 at 48 h (in vitro): > 185 µM
- EC50 against resistant strain W2 [8]: 20.2 ± 6.4 µg/mL (≈ 74.7 µM)
- EC50 [9]: 20 ± 3 µM
- EC50 (FabI): 50 µM
- CC50 (normal human cells TIG-1): 110 µM
- CC50 (normal human cells HUVE): 110 µM
- EC50 [10]: 28.5 µM
- EC50 against chloroquine-sensitive strain D10 [11]: 25.4 ± 7.9 µg/mL (≈ 94 µM)
- suppression of P. berghei parasiteamia (P. berghei; 15 mg/kg/day): 49.23%
- suppression of P. berghei parasiteamia (P. berghei; 35 mg/kg/day): 50.3%
- suppression of P. berghei parasiteamia (P. berghei; 70 mg/kg/day): 69.74%

- EC50 [1, 12]: > 200 µM
- EC50 [2, 13]: > 200 µM
SMILES: Oc1ccc([C@H]2Oc3cc(O)cc(O)c3C[C@@H]2O)cc1 [Compound 2, afzelechin]

- EC50 [1, 12]: > 200 µM
- EC50 [2, 13]: > 200 µM
SMILES: O=c1c(O)c(-c2ccc(O)cc2)oc2cc(O)cc(O)c12 [Compound 3, kaempferol]

SMILES: C=C(C)[C@@H]1CC[C@]2(C)CC[C@]3(C)C(CCC4[C@@]5(C)C[C@H](O)[C@H](O)C(C)(C)C5CC[C@]43C)C12 (stereo partly drawn) [Compound 4, 2β,3β-dihydroxylup-20-ene]
- EC50 [1, 12]: > 200 µM
- EC50 [2, 14]: > 200 µM

- EC50 [1, 12]: 4.27 ± 0.05 µM
- EC50 [2, 13]: 1.36 ± 0.47 µM
SMILES: COc1c(O)cc2c(=O)oc3c(OC)c(O)cc4c(=O)oc1c2c34 [Compound 6, 3,3′-O-dimethylellagic acid]
- CC50 at 48 h [5]: > 152 µM
- SI (selectivity index) [7]: greater than 9
- CC50 at 48 h (in vitro): > 152 µM

SMILES: COc1cc([C@@H]2c3cc4c(cc3[C@H](O)[C@H]3COC(=O)[C@H]23)OCO4)cc(OC)c1OC [Podophyllotoxin, reference compound]
- CC50 at 48 h [5]: 0.76 µg/mL and 1.83 µM
- CC50 at 48 h (in vitro): 1.89 µg/mL and 4.56 µM

SMILES: O=c1oc2c(O)c(O)cc3c(=O)oc4c(O)c(O)cc1c4c23 [ellagic acid]
- EC50 (Pf3D7): 0.819 µM
- EC50 (PfDd2): 0.351 µM
